# Like-named read-outs stand apart in the source and are kept apart here. Numbered stars: 1 amine (or outer) side, 2 acyl side, 3 side chain; on linkers, the order of the positions; unused ones are H or OH. Bridge positions count the residues as written; N and C are the ends. Square brackets hold non-standard residues; d marks the D form. Peptide text beside a SMILES is read from it. * marks the point of attachment. Phe(3-Me) = Cc1cccc(C[C@H](N)C(=O)O)c1; X4 = O=C1CN([*:1])[C@H](C(=O)[*:2])CN1; NH(4-Cl-2-F-phenyl) = Fc1cc(Cl)ccc1N*; Pro(4R-Me) = C[C@H]1CN[C@H](C(=O)O)C1; Hyp = O=C(O)[C@@H]1C[C@@H](O)CN1; NH(4-Et-phenyl) = CCc1ccc(N*)cc1; NH(4-Me-phenyl) = Cc1ccc(N*)cc1; aThr = C[C@H](O)[C@H](N)C(=O)O; Pip = O=C(O)[C@@H]1CCCCN1; 4Abz = Nc1ccc(C(=O)O)cc1; X3 = c1cc2c(cc1N*)OCCO2; CO = O=C([*:1])[*:2]
# How the values were obtained:
# E. faecails = assay: Minimal inhibitory concentration, microbroth dilution; assay type: cell-based; conditions: Enterococcus faecalis
# Procedure, shortened: (§1)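 Compound was diluted twofold in the appropriate broth. Bacterial suspension (approx. 10^5 cfu/mL) was then added in equal volume, giving a maximum test concentration of 200 μM. After aerobic overnight incubation at 37 °C, wells were inspected visually for growth.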
# MRSA NRS70 = assay: as above; assay type: cell-based; conditions: Staphylococcus aureus
# Procedure, shortened: as §1
# S. aureus ATCC 29213 = assay: as above; assay type: cell-based; conditions: Staphylococcus aureus
# Procedure, shortened: as §1
# S. aureus USA 300 = assay: as above; assay type: cell-based; conditions: Staphylococcus aureus
# Procedure, shortened: as §1
# [1] = Plasma protein binding, rapid equilibrium dialysis; assay type: in vitro ADME, mouse
# Protocol: This assay determines plasma protein binding of a drug/compound and free drug concentration in plasma using rapid equilibrium dialysis, which allow the aqueous component of plasma containing the free drug/compound through a dialysis membrane (MWCO˜8,000).
# Solutions were prepared at 10 mM in DMSO. Dulbecco's phosphate buffered saline (DPBS; pH 7.4) was obtained from Invitrogen (Carlsbad, Calif.). Single-Use RED (rapid equilibrium dialysis) device was obtained from Thermo scientific (Rockford, Ill.). Human plasma was obtained from Innovative Research INC (Novi, Michigan, Ill).
# Sample preparation for plasma protein binding was modified from Waters' method. (Waters et al. (2008) J. Pharm. Sci. 97(10): 4586-95). The Teflon base plate with the RED inserts (MWCO 8 K) were allowed to use without any pre-condition the membrane inserts. Human plasma was thawed and centrifuged at 1000 rpm for 2 min to remove any particulates. Each compound was prepared at 10 μM in human plasma. This was done by adding 1 μL, of drug solution (10 mM in DMSO) to 1000 μL, of human plasma (0.1% DMSO). Spiked plasma solutions (300 μL) were placed into the sample chamber (indicated by the red ring) and 500 μL, of DPBS into the adjacent chamber. The plate was sealed and incubated at 37° C. on an orbital shaker (100 rpm) for 4 hours. After incubation, the seal was removed from the RED plate and the volume of the insert confirmed—little to no volume change occurred. Aliquots (50 μL) were removed from each side of the insert and dispensed into a 96-well deep plate. An equal volume of blank plasma or DPBS was added to the required wells to create analytically identical sample matrices (matrix matching). To each sample 200 μL, of ACN containing 4 μg/mL warfarin IS was added. All of the plates were sealed and mixed well at 600 rpm for 10 min and were centrifuged at 4000 rpm for 20 min. The supernatants (120 μL) were transferred to analytical plates for analysis by LCMS. Conditions for Waters ACQUITY-UPLC-MS-UV system were described separately. The test compound concentrations were quantified in both buffer and plasma chambers via peak areas relative to the internal standard. The percentage of the test compound bound to plasma was calculated on following equations: % Free=(Concentration buffer chamber/concentration plasma chamber)×100% and % Bound=100%-% Free.
# [2] = read-out: Minimal Inhibitory Concentrations (μM) E. faecails, MIC
# [3] = read-out: Minimal Inhibitory Concentrations (μM) MRSA NRS70, MIC
# [4] = ATCC29213, read-out: Minimal Inhibitory Concentrations (μM) S. aureus ATCC 29213, MIC
# [5] = USA300, read-out: Minimal Inhibitory Concentrations (μM) S. aureus USA 300, MIC
# [6] = plasma binding, % Bound, mouse plasma
# [7] = MIC, read-out: Minimal Inhibitory Concentrations (μM) E. faecails
# [8] = MIC, read-out: Minimal Inhibitory Concentrations (μM) MRSA NRS70
# [9] = ATCC29213, MIC, read-out: Minimal Inhibitory Concentrations (μM) S. aureus ATCC 29213
# [10] = USA300, MIC, read-out: Minimal Inhibitory Concentrations (μM) S. aureus USA 300
SMILES,MIC (E. faecails; [2]) [µM],MIC (MRSA NRS70; [3]) [µM],MIC (S. aureus ATCC 29213; [4]) [µM],MIC (S. aureus USA 300; [5]) [µM],"Mouse [1, 6] [%]",MIC (E. faecails; [7]) [µM],MIC (MRSA NRS70; [8]) [µM],MIC (S. aureus ATCC 29213; [9]) [µM],MIC (S. aureus USA 300; [10]) [µM],"Mouse ([1]; mouse, 4 h, 10 μM, pH 7.4) [%]"
"Cc1ccc(NC(=O)N[C@@H](Cc2cccc(C)c2)C(=O)N[C@H]2COC(=O)[C@@H]3C[C@H](C)CN3C(=O)[C@H](C)NC(=O)[C@@H]3CCCCN3C(=O)[C@@H]3CCCN3C2=O)cc1 (stereo in doubt) [Compound 43, (S)—N-((2S,6S,8AS,14AS,20S,23AS)-2,6-DIMETHYL-5,8,14,19,23-PENTAOXOOCTADECAHYDRO-1H,5H,14H,19H-PYRIDO[2,1-I]DIPYRROLO[2,1-C:2′,1′-L][1]OXA[4,7,10,13]TETRAAZACYCLOHEXADECIN-20-YL)-3-(M-TOLYL)-2-(3-(P-TOLYL)UREIDO)PROPANAMIDE]",2.5,2.5,2.5,2.5,61.7 ± 1.6,–,–,–,–,–
"Cc1cccc(C[C@H](NC(=O)Nc2ccc(Cl)cc2F)C(=O)N[C@@H]2C(=O)N3CCC[C@H]3C(=O)N3CC(=O)NC[C@H]3C(=O)N[C@@H](C)C(=O)N3C[C@H](C)C[C@H]3C(=O)O[C@H]2C)c1 [Compound 20, (S)-2-(3-(4-CHLORO-2-FLUOROPHENYL)UREIDO)-3-(M-TOLYL)-N-((6AS,12S,13S,15AS,17R,21S,23AS)-13,17,21-TRIMETHYL-3,6,11,15,20,23-HEXAOXOOCTADECAHYDRO-2H,6H,11H,15H-PYRAZINO[2,1-I]DIPYRROLO[2,1-C:2′,1′-L][1]OXA[4,7,10,13]TETRAAZACYCLOHEXADECIN-12-YL)PROPANAMIDE] ({NH(4-Cl-2-F-phenyl)-CO}-[Phe(3-Me)][aThr]P[X4]A[Pro(4R-Me)]; ester 2-C)",–,–,–,–,–,2.5,5,1.25,5,98.7 ± 0.1
"Cc1cccc(C[C@H](NC(=O)Nc2ccc3c(c2)OCCO3)C(=O)N[C@@H]2C(=O)N3CCC[C@H]3C(=O)N3CCCC[C@H]3C(=O)N[C@@H](C)C(=O)N3C[C@H](C)C[C@H]3C(=O)O[C@H]2C)c1 [Compound 21, (S)-2-(3-(2,3-DIHYDROBENZO[B][1,4]DIOXIN-6-YL)UREIDO)-3-(M-TOLYL)-N-((2R,6S,8AS,14AS,20S,21S,23AS)-2,6,21-TRIMETHYL-5,8,14,19,23-PENTAOXOOCTADECAHYDRO-1H,5H,14H,19H-PYRIDO[2,1-I]DIPYRROLO[2,1-C:2′,1′-L][1]OXA[4,7,10,13]TETRAAZACYCLOHEXADECIN-20-YL)PROPANAMIDE] ({X3-CO}-[Phe(3-Me)][aThr]P[Pip]A[Pro(4R-Me)]; ester 2-C)",–,–,–,–,–,0.625,0.313,0.625,1.25,99.2 ± 0.1
"Cc1cccc(C[C@H](NC(=O)Nc2ccc3c(c2)OCCO3)C(=O)N[C@H]2COC(=O)[C@@H]3C[C@@H](C)CN3C(=O)[C@H](C)NC(=O)[C@@H]3CCCCN3C(=O)[C@@H]3CCCN3C2=O)c1 [Compound 22, (S)-2-(3-(2,3-DIHYDROBENZO[B][1,4]DIOXIN-6-YL)UREIDO)-N-((2R,6S,8AS,14AS,20S,23AS)-2,6-DIMETHYL-5,8,14,19,23-PENTAOXOOCTADECAHYDRO-1H,5H,14H,19H-PYRIDO[2,1-I]DIPYRROLO[2,1-C:2′,1′-L][1]OXA[4,7,10,13]TETRAAZACYCLOHEXADECIN-20-YL)-3-(M-TOLYL)PROPANAMIDE]",–,–,–,–,–,1.25,1.25,5,5,98.4 ± 0.1
"CCc1ccc(NC(=O)N[C@@H](Cc2cccc(C)c2)C(=O)N[C@@H]2C(=O)N3C[C@H](O)C[C@H]3C(=O)N3CCCC[C@H]3C(=O)N[C@@H](C)C(=O)N3C[C@H](C)C[C@H]3C(=O)O[C@H]2C)cc1 [Compound 25, (S)-2-(3-(4-ETHYLPHENYL)UREIDO)-N-((2R,6S,8AS,14AS,16R,20S,21S,23AS)-16-HYDROXY-2,6,21-TRIMETHYL-5,8,14,19,23-PENTAOXOOCTADECAHYDRO-1H,5H,14H,19H-PYRIDO[2,1-I]DIPYRROLO[2,1-C:2′,1′-L][1]OXA[4,7,10,13]TETRAAZACYCLOHEXADECIN-20-YL)-3-(M-TOLYL)PROPANAMIDE] ({NH(4-Et-phenyl)-CO}-[Phe(3-Me)][aThr][Hyp][Pip]A[Pro(4R-Me)]; ester 2-C)",–,–,–,–,–,0.156,0.156,0.156,0.313,99.5 ± 0.11
"Cc1ccc(NC(=O)N[C@@H](Cc2cccc(C)c2)C(=O)N[C@@H]2C(=O)N3C[C@H](O)C[C@H]3C(=O)N3CCCC[C@H]3C(=O)N[C@@H](C)C(=O)N3C[C@H](C)C[C@H]3C(=O)O[C@H]2C)cc1 [Compound 26, (S)—N-((2R,6S,8AS,14AS,16R,20S,21S,23AS)-16-HYDROXY-2,6,21-TRIMETHYL-5,8,14,19,23-PENTAOXOOCTADECAHYDRO-1H,5H,14H,19H-PYRIDO[2,1-I]DIPYRROLO[2,1-C:2′,1′-L][1]OXA[4,7,10,13]TETRAAZACYCLOHEXADECIN-20-YL)-3-(M-TOLYL)-2-(3-(P-TOLYL)UREIDO)PROPANAMIDE] ({NH(4-Me-phenyl)-CO}-[Phe(3-Me)][aThr][Hyp][Pip]A[Pro(4R-Me)]; ester 2-C)",5,0.313,0.313,2.5,99.1 ± 0.15,–,–,–,–,–
"CCOC(=O)c1ccc(NC(=O)N[C@@H](Cc2cccc(C)c2)C(=O)N[C@@H]2C(=O)N3C[C@H](O)C[C@H]3C(=O)N3CCCC[C@H]3C(=O)N[C@@H](C)C(=O)N3C[C@H](C)C[C@H]3C(=O)O[C@H]2C)cc1 [Compound 36, ETHYL 4-(3-((S)-1-(((2R,6S,8AS,14AS,16R,20S,21S,23AS)-16-HYDROXY-2,6,21-TRIMETHYL-5,8,14,19,23-PENTAOXOOCTADECAHYDRO-1H,5H,14H,19H-PYRIDO[2,1-I]DIPYRROLO[2,1-C:2′,1′-L][1]OXA[4,7,10,13]TETRAAZACYCLOHEXADECIN-20-YL)AMINO)-1-OXO-3-(M-TOLYL)PROPAN-2-YL)UREIDO)BENZOATE] ({OEt-4Abz-CO}-[Phe(3-Me)][aThr][Hyp][Pip]A[Pro(4R-Me)]; ester 2-C)",1.25,2.5,1.25,2.5,–,–,–,–,–,–
"Cc1ccc(NC(=O)N[C@@H](Cc2cccc(C)c2)C(=O)N[C@H]2COC(=O)[C@@H]3CCCN3C(=O)[C@H](C)NC(=O)[C@@H]3CCCCN3C(=O)[C@@H]3C[C@@H](O)CN3C2=O)cc1 [Compound 49, (S)—N-((6S,8AS,14AS,16R,20S,23AS)-16-HYDROXY-6-METHYL-5,8,14,19,23-PENTAOXOOCTADECAHYDRO-1H,5H,14H,19H-PYRIDO[2,1-I]DIPYRROLO[2,1-C:2′,1′-L][1]OXA[4,7,10,13]TETRAAZACYCLOHEXADECIN-20-YL)-3-(M-TOLYL)-2-(3-(P-TOLYL)UREIDO)PROPANAMIDE]",–,–,–,–,99.4 ± 9.4,–,–,–,–,–

# From US10570179B2, “Substituted urea depsipeptide analogs as activators of the CLPP endopeptidase” (priority 2016, dated 2020)
